This test deals with T1, FXR (Homo sapiens, UniProt Q96RI1).
T1 construct: using a full length FXR on a natural response element; expressed in transfected cells
T1 sequence (Q96RI1 1-486): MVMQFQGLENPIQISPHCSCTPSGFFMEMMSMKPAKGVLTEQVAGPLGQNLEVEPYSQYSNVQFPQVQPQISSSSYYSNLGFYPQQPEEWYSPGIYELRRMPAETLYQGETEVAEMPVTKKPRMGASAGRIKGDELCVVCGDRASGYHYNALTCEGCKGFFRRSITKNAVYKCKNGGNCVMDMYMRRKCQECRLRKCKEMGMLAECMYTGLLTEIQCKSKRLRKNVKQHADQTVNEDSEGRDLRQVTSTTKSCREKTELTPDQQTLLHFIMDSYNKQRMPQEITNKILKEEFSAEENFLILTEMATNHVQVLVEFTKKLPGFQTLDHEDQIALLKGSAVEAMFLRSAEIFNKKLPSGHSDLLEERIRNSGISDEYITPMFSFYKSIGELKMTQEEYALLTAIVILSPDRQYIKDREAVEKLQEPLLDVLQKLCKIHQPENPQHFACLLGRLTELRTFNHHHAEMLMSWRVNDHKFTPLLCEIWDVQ
The experiment in a line: cell-based transcription assay, FXR responsive promoter linked to a luciferase reporter. Conditions: for RE: RE not defined in the source. More on the design: RE: scale not given here. From the text:
In addition to ensuring that only cell permeable compounds were selected for further optimization, this approach allows for the detection of FXR activation in a natural system (i.e., correct folding of the protein and in the presence of a complete compliment of co-activators and co-repressors).
The feasibility of creating high throughput screens (XIS) for ORs was explored using FXR as a candidate orphan receptor (OR) with a known activator, chenodeoxycholic acid (CDCA) as a ligand. The screen is based on the co-transfection of a full-length receptor with the reporter vector containing a natural hormone response element under a minimal eukaryotic promoter. […] Using this 384-well format, the high throughput screening (HTS) approach to FXR as a candidate OR was employed. […] A central question in the feasibility studies is whether this library is suitable for screening for nuclear receptor ligands. Samples of this library were first reformatted into a 384-well format and then subjected to the FXR cell-based assays described above and assessed for FXR-mediated transcriptional activity. Cells were exposed to approximately 10 μM of sample for 18 hrs prior to washing and luciferase analysis.
EC50 values were determined with Prism 3.0 software via the activity of the subject compound in the previously described cell based assay.
On the technique in general: In a reporter assay the amount or activity of a reporter protein is the signal.

[1] abbreviates: library screening hits and leads, read-out: activity (EC50).
The mark [2] stands for this setting: FXR activation, cell-based reporter assay, read-out: EC50.
The mark [3] stands for this setting: Tables 1-15, FXR activation, cell-based reporter assay, read-out: EC50.

Results on 45 compounds are retold here after patent US20060223879A1, “Non-steroidal farnesoid x receptor modulators” (priority 2002, published 2006).

The structures appear in SMILES notation. “And” between values parts separate entries of the source, which are not always exact repeats. Identical values can stand only once. “Also recorded” adds a separate entry of the source. Like-named read-outs stand apart in the source and are kept apart here. A value given as a limit tells only on which side of the number the result lay.

Broadly, the EC50 is the concentration at which the effect is half-maximal.

As to `COC(=O)/C=C/c1cccc(N(Cc2ccc3c(c2OC)OC(C)(C)[C@@H](OC(C)=O)[C@H]3OC(C)=O)C(=O)c2ccccc2)c1` (relative stereo) [Compound 95], the “FXR activation (in words)” value (cell-based reporter assay) is “Nor did the addition of H-bond acceptors such as in 89, 90, 95, 99 and 101 improve the ability of the parent compound 68 to activate FXR”. In the case of `COc1cc(CN(CC(C)C)C(=O)C2CCCCC2)cc2c1OC(C)(C)C=C2` [Compound 16], the EC50 under setting [1] is 5 to 10 µM.

With `COc1c(CN(C(=O)c2ccccc2C(=O)O)c2ccncc2)ccc2c1OC(C)(C)C=C2` [Compound 17], under setting [1], the EC50 was in the range of 5 to 10 µM. In the case of `COc1cc(CN(Cc2ccccc2)C(=O)NC2CCCC2)cc2c1OC(C)(C)C=C2` [Compound 18], the EC50 under setting [1] was in the range of 5 to 10 µM. `COc1c(CN(C(=O)C2CCCCC2)C(C)C)ccc2c1OC(C)(C)C=C2` [Compound 19]: the EC50 under setting [1] was in the range of 5 to 10 µM.

For `COc1cc(CN(CC(C)C)C(=O)c2ccccc2)cc2c1OC(C)(C)C=C2` [Compound 20], under setting [1], the EC50 lay in the range of 5 to 10 µM. In the case of `COc1c(CN(C(=O)CC(C)C)C(C)C)ccc2c1OC(C)(C)C=C2` [Compound 21], the 50% effective concentration (EC50) under setting [1] lay in the range of 5 to 10 µM. For the compound `COc1c(CN(C(=O)c2ccccc2C(=O)O)c2ccccc2)ccc2c1OC(C)(C)C=C2` [Compound 22], under setting [1], the EC50 was in the range of 5 to 10 µM.

For the compound `COc1c(CN(Cc2ccccc2)C(=O)C2CC2)ccc2c1OC(C)(C)C=C2` [Compound 23], the EC50 under setting [1] fell in the range of 5 to 10 µM. Regarding `COc1cc(CN(C(=O)CC(C)C)c2ccccc2)cc2c1OC(C)(C)C=C2` [Compound 24], under setting [1], the EC50 was in the range of 5 to 10 µM.

Take `COc1cc(CN(C(=O)Nc2ccccc2)c2ccccc2)cc2c1OC(C)(C)C=C2` [Compound 25]: the EC50 under setting [1] was in the range of 5 to 10 µM. As to `COc1c(CN(C(=O)C2CC2)c2ccccc2)ccc2c1OC(C)(C)C=C2` [Compound 26], the “FXR activation (in words)” value (cell-based reporter assay) is given as “among the most active at this stage”. Moreover, the EC50 under setting [1] lay within 5 to 10 µM. On to `COc1c(CN(C(=O)C2CCCCC2)c2ccccc2)ccc2c1OC(C)(C)C=C2` [Compound 27], for which, under “cell-based reporter assay”, the “FXR activation (in words)” value is listed as “among the most active at this stage”. In addition, under setting [1], the EC50 fell in the range of 5 to 10 µM. With `COC(=O)/C=C/c1cccc(N(Cc2ccc3c(c2OC)OC(C)(C)C=C3)C(=O)C2CC2)c1` [Compound 29], the “FXR activation (in words)” value (cell-based reporter assay) is recorded as “substantially better activator of FXR than compound 26; also recorded: capable of activating FXR to a significant extent”. Regarding `CCOC(=O)/C=C/c1cccc(N(Cc2ccc3c(c2OC)OC(C)(C)C=C3)C(=O)C2CC2)c1` [Compound 30], under “cell-based reporter assay”, the “FXR activation (in words)” value is “inactive”.

Turning to `COC/C=C/c1cccc(N(Cc2ccc3c(c2OC)OC(C)(C)C=C3)C(=O)C2CC2)c1` [Compound 33], under “cell-based reporter assay”, the “FXR activation (in words)” value is on record as “capable of activating FXR to a significant extent”. On the same count and under the same terms, in the case of `COc1c(CN(C(=O)C2CC2)c2cccc(/C=C/C#N)c2)ccc2c1OC(C)(C)C=C2` [Compound 34] it was “inactive”. The same measure, in the same setting: the result for `CNC(=O)/C=C/c1cccc(N(Cc2ccc3c(c2OC)OC(C)(C)C=C3)C(=O)C2CC2)c1` [Compound 38] reads “inactive”.

As for `COC(=O)/C=C/c1ccc(N(Cc2ccc3c(c2OC)OC(C)(C)C=C3)C(=O)C2CC2)cc1` [Compound 53], the “FXR activation (in words)” value (cell-based reporter assay) is reported as “does not activate FXR under the conditions tested”. Take `COC(=O)/C=C/c1cccc(N(Cc2ccc3c(c2OC)OC(C)(C)C=C3)C(=O)C2CCCCC2)c1` [Compound 65]: the EC50 under setting [2] was 0.358 µM and 0.348 µM. In addition, the RE (Tables 1-15) amounted to 0.40. Consider `COC(=O)/C=C/c1cccc(N(Cc2ccc3c(c2OC)OC(C)(C)C=C3)C(=O)c2ccccc2)c1` [Compound 68], for which the EC50 is, setting by setting: under setting [2], 1 µM; under setting [3], over 1 µM. The RE (Tables 1-15) amounted to 0.83. Take `COC(=O)/C=C/c1cccc(N(Cc2ccccc2)Cc2ccc3c(c2OC)OC(C)(C)C=C3)c1` [Compound 78]: under “cell-based reporter assay”, the “FXR activation (in words)” value was “inactive”. As to `COC(=O)/C=C/c1cccc(N(C)Cc2ccc3c(c2OC)OC(C)(C)C=C3)c1` [Compound 79], the “FXR activation (in words)” value (cell-based reporter assay) was “inactive”. Turning to `COC(=O)/C=C/c1cccc(N(Cc2ccc3c(c2OC)OC(C)(C)C=C3)S(=O)(=O)c2ccc(C)cc2)c1` [Compound 82], the “FXR activation (in words)” value (cell-based reporter assay) was “inactive”.

As to `COC(=O)/C=C/c1cccc(N(Cc2ccc3c(c2OC)OC(C)(C)C=C3)C(=S)C2CC2)c1` [Compound 83], the “FXR activation (in words)” value (cell-based reporter assay) was “inactive”. As to `COC(=O)/C=C/c1cccc(N(Cc2ccc3c(c2OC)OC(C)(C)C=C3)C(=S)NCc2ccccc2)c1` [Compound 84], the “FXR activation (in words)” value (cell-based reporter assay) was “inactive”. `COC(=O)/C=C/c1cccc(N(Cc2ccc3c(c2OC)OC(C)(C)C=C3C(=O)O)C(=O)c2ccccc2)c1` [Compound 86]: the “FXR activation (in words)” value (cell-based reporter assay) is listed as “did not improve the activity”.

For `COC(=O)/C=C/c1cccc(N(Cc2ccc3c(c2OC)OC(C)(C)CC3=O)C(=O)c2ccccc2)c1` [Compound 89], the “FXR activation (in words)” value (cell-based reporter assay) is “Nor did the addition of H-bond acceptors such as in 89, 90, 95, 99 and 101 improve the ability of the parent compound 68 to activate FXR”.

In the case of `COC(=O)/C=C/c1cccc(N(Cc2ccc3c(c2OC)OC(C)(C)C(C)C3=O)C(=O)c2ccccc2)c1` (centres unmarked) [Compound 90], the “FXR activation (in words)” value (cell-based reporter assay) is “Nor did the addition of H-bond acceptors such as in 89, 90, 95, 99 and 101 improve the ability of the parent compound 68 to activate FXR”. On to `COC(=O)/C=C/c1cccc(N(Cc2ccc3c(c2OC)OC(C)(C)[C@@H](O)[C@H]3O)C(=O)c2ccccc2)c1` [Compound 93], for which, where the note is “cell-based reporter assay”, the “FXR activation (in words)” value was “did not improve the activity”. For the compound `COC(=O)C=Cc1cccc(N(Cc2ccc3c(c2OC)OC(C)(C)C(O)C3O)C(=O)c2ccccc2)c1` (centres unmarked) [Compound 94], the “FXR activation (in words)” value (cell-based reporter assay) was “did not improve the activity”.

With `COC(=O)C=Cc1cccc(N(Cc2ccc3c(c2OC)OC(C)(C)C(O)C3Sc2ccccc2)C(=O)c2ccccc2)c1` (centres unmarked) [Compound 98], the “FXR activation (in words)” value (cell-based reporter assay) is recorded as “did not improve the activity”.

Take `COC(=O)C=Cc1cccc(N(Cc2ccc3c(c2OC)OC(C)(C)C(OC(C)=O)C3Sc2ccccc2)C(=O)c2ccccc2)c1` (centres unmarked) [Compound 99]: the “FXR activation (in words)” value (cell-based reporter assay) was “Nor did the addition of H-bond acceptors such as in 89, 90, 95, 99 and 101 improve the ability of the parent compound 68 to activate FXR”.

For `COC(=O)C=Cc1cccc(N(Cc2ccc3c(c2OC)OC(C)(C)C(O)C3N2CCCCC2)C(=O)c2ccccc2)c1` (centres unmarked) [Compound 100], where the note is “cell-based reporter assay”, the “FXR activation (in words)” value is recorded as “did not improve the activity”. The same measure, in the same setting: in the case of `COC(=O)C=Cc1cccc(N(Cc2ccc3c(c2OC)OC(C)(C)C(OC(C)=O)C3N2CCCCC2)C(=O)c2ccccc2)c1` (centres unmarked) [Compound 101] it was “Nor did the addition of H-bond acceptors such as in 89, 90, 95, 99 and 101 improve the ability of the parent compound 68 to activate FXR”.

As to `COC(=O)/C=C/c1cccc(N(Cc2ccc3c(c2OC)OC(C)(C)C2C3C2(Cl)Cl)C(=O)c2ccccc2)c1` (centres unmarked) [Compound 102], under setting [2], the EC50 came to 0.333 µM. Under “Tables 1-15”, this compound had an RE of 0.64.

As to `COC(=O)C=Cc1cccc(N(Cc2ccc(C=CC(=O)O)cc2)C(=O)C2CCCCC2)c1` [Compound 104], the EC50 under setting [3] was over 1 µM. The compound further registered an RE (Tables 1-15) of 0.08. With `COC(=O)/C=C/c1cccc(N(Cc2ccc(/C=C/C(=O)OC(C)(C)C)cc2)C(=O)C2CCCCC2)c1` [Compound 105], the EC50 under setting [2] was 0.127 µM and 0.127 to 0.25 µM. This compound gave an RE (Tables 1-15) of 2.12. `COC(=O)/C=C/c1cccc(N(Cc2cccc(/C=C/C(=O)OC(C)(C)C)c2)C(=O)C2CCCCC2)c1` [Compound 107]: the “FXR activation (in words)” value (cell-based reporter assay) is “only micromolar potency”. As to `COC(=O)/C=C/c1cccc(N(Cc2ccccc2/C=C/C(=O)OC(C)(C)C)C(=O)C2CCCCC2)c1` [Compound 109], where the note is “cell-based reporter assay”, the “FXR activation (in words)” value is recorded as “only micromolar potency”. `COC(=O)/C=C/c1cccc(N(Cc2ccccc2)C(=O)C2CCCCC2)c1` [Compound 110]: under setting [3], the EC50 was over 1 µM. Also, the RE (Tables 1-15) was determined as 0.09. Also, under “cell-based reporter assay”, the “FXR activation (in words)” value was “inactive”. With `COC(=O)/C=C/c1cccc(N(C(=O)C2CCCCC2)c2ccc3ccccc3c2)c1` [Compound 111], the EC50 under setting [2] was 0.68 µM. The RE (Tables 1-15) was determined as 0.41.

On to `COC(=O)/C=C/c1cccc(N(Cc2ccc(Br)cc2)C(=O)C2CCCCC2)c1` [Compound 112], for which the EC50 under setting [3] is over 1 µM. The compound further showed an RE (Tables 1-15) of 0.28. In the case of `COC(=O)/C=C/c1cccc(N(Cc2cccc(Br)c2)C(=O)C2CCCCC2)c1` [Compound 113], the EC50 under setting [3] is over 1 µM. Moreover, the RE (Tables 1-15) is 0.10. Regarding `COC(=O)/C=C/c1cccc(N(Cc2ccccc2Br)C(=O)C2CCCCC2)c1` [Compound 114], under setting [3], the EC50 was over 1 µM. The compound further gave an RE (Tables 1-15) of 0.11.
